Assay [1] deals with Lymphocytes obtained from periodontitis patients and healthy subjects (T cell proliferation). The assay is described as follows: Drug-induced lymphocyte stimulation test (DLST). It counts as cell-based, human. To be noted: for T cell proliferation induction potency in DLST: periodontitis patients as compared to healthy subjects. The text has this:
Lymphocytes obtained from periodontitis patients and healthy subjects were subjected to a drug-induced lymphocyte stimulation test (DLST) using full-length human Keratin 6 and peptide 1 (fragment thereof) (periodontitis patients: N=22, healthy subjects: N=5).

A further assay has as its system RANKL in lymphocytes. The assay is described as follows: RANKL expression in stimulated lymphocytes, Western blot with anti RANKL antibody. It counts as cell-based, human. On the procedure:
Blood samples were collected from progressive (untreated) periodontitis patients, periodontitis patients during treatment and periodontitis patients after treatment to obtain lymphocytes, stimulated with full-length human Keratin 6 (K6; 2 or 4 μg/ml) or peptide 1 (K6F; 60 or 30 μg/ml), expression of RANKL in lymphocytes was examined by Western blot analysis using anti RANKL antibody. […] Fluorescent staining was performed to examine induction of lymphoblast formation by the stimulation with full-length human Keratin 6 or peptide 1. As a result, it was correlated well with the expression of RANKL mRNA (FIG. 8C).
(In general: A western blot detects proteins with antibodies after separation by electrophoresis.)

The subject of assay [2] is RANKL mRNA in lymphocytes. The assay is described as follows: RT-PCR of RANKL mRNA in lymphocytes of periodontitis patients. The class given is cell-based, human. The conditions noted are these: stimulation of lymphocytes of periodontitis patients.
Assay [3] relates to Peripheral blood monocytes derived from severe periodontitis patients. The assay is described as follows: Immunostaining of peripheral blood monocytes with anti-RANKL and anti-CD3 antibody. To be noted: stimulation of cells from severe periodontitis patients. It counts as cell-based, human. The text has this: Peripheral blood monocytes derived from severe periodontitis patients were stimulated with full-length human Keratin 6 (FL) or peptide 1 (K6F), and immunostained with anti-RANKL antibody and anti-CD3 antibody.

For assay [4], the system named is T cells obtained from peripheral blood of the periodontal disease patients. The assay is described as follows: Differentiation of stimulated T cells into polynuclear giant cells, tissue staining. It counts as cell-based, human. The conditions noted are these: stimulation. The text has this:
T cells obtained from peripheral blood of the periodontal disease patients and healthy subject were stimulated with full-length human Keratin 6 (FL) or peptide 1 (K6F), and differentiation into polynuclear giant cells was observed by tissue staining.

The test system is the same in assay [5]. The assay is described as follows: Pit formation assay on dentin section. It counts as cell-based, human. To be noted: stimulation.
For the next assay, the system named is rats. The assay is described as follows: Intragingival injection to the lower left jaw of rats. It counts as in vivo, rat. To be noted: for tumentia of lower jaw lymph node (Lt): injected left side, intragingival injection; for alveolar bone destruction: lower jaw of injected rats. On the procedure: (§1) PBS, full-length human Keratin 6 (FLK6) or peptide 1 (K6F) was administered by intragingival injection to the lower left jaw of rats. […] The lymphocytes obtained from these rats were stimulated with FLK6 or K6F and cultured. […] In addition, peripheral blood mononuclear leukocytes were obtained from these rats, stimulated with K6F or scramble peptide (Sc), and expression of RANKL and CD3 were examined by FACS analysis. […] Moreover, alveolar bone destruction in these rats was examined.

Assay [6] relates to lymphocytes obtained from these rats. The assay is described as follows: Lymphoblast formation in cultured lymphocytes of injected rats. The class given is cell-based, rat. On the procedure:
as §1

The test system of assay [7] is peripheral blood mononuclear leukocytes. The assay is described as follows: FACS analysis of RANKL and CD3 in peripheral blood mononuclear leukocytes of injected rats. The class given is cell-based, rat. The conditions noted are these: in vitro stimulation of cells of rats injected with FL6 or K6F. On the procedure: as §1
The test system of the next assay is gingiva fibroblast (GF). The assay is described as follows: Binding of FITC-labeled peptide to various cells, confocal microscope. To be noted: gingiva fibroblast compared to other cells. The text has this:
Various cells were stimulated with FITC-labeled peptide 1 (K6F, P-1), observed under a confocal microscope, and the binding level to K6F was shown by percentage higher than that of the control cell (FIG. 14).

The subject of assay [8] is MMP-2, MMP-3, MCP-1, IL-6, IL-8 in gingiva fibroblasts. The assay is described as follows: Cytokine and chemokine expression in stimulated gingiva fibroblasts, Western blot. It counts as cell-based. The conditions noted are these: stimulation 2-24 hr. On the procedure:
(§2) Gingiva fibroblasts were stimulated with peptide 1 (K6F), recombinant Keratin 6 (RK6, Rec-K6) or scramble peptide (Sc) for 2-24 hr, and the expression levels of MMP-2, MMP-3, MCP-1, IL-6, IL-8 were measured by Western blot analysis. […] Then, gingiva fibroblast (GF) and gingival epithelial cell (GEC) were stimulated with peptide 1 (K6F) or scramble peptide (Sc), respectively, for 15 min-2 hr, and phosphorylation of p38 in GF, as well as expression of IκB-α and phosphorylation of p65 NFκB and activation of representative serine/threonine kinase in GEC were examined.

For assay [9], the system named is p38 MAPK, IκB-α, p65 NFκB in gingiva fibroblast (GF). The assay is described as follows: p38 MAPK, IκB-α and p65 NFκB signalling in stimulated gingiva fibroblast. The class given is cell-based. To be noted: stimulation 15 min-2 hr. On the procedure:
Gingiva fibroblasts were stimulated with peptide 1 (K6F), recombinant Keratin 6 (RK6, Rec-K6) or scramble peptide (Sc) for 2-24 hr, and the expression levels of MMP-2, MMP-3, MCP-1, IL-6, IL-8 were measured by Western blot analysis. […] Then, gingiva fibroblast (GF) and gingival epithelial cell (GEC) were stimulated with peptide 1 (K6F) or scramble peptide (Sc), respectively, for 15 min-2 hr, and phosphorylation of p38 in GF, […] serine/threonine kinase in GEC were examined.

Assay [10] concerns ERK and Akt in gingival epithelial cell (GEC). The assay is described as follows: Activation of serine/threonine kinases in stimulated gingival epithelial cell. The class given is cell-based. The conditions noted are these: stimulation 15 min-2 hr. On the procedure:
as §2

Setting [11] is: lymphocytes of healthy subject (Non-PD) and periodontitis patients after treatment (Maintenance Phase).
Where [12] appears, read: lymphocytes of untreated periodontitis patients and patients during treatment, K6 2 or 4 μg/ml, K6F 60 or 30 μg/ml.
Where [13] appears, read: in vitro stimulation of lymphocytes of injected rats.
Where [14] appears, read: lymphocytes of rats injected with the substance.

Turning to “YEELQITAGRHGDDLRNTK (listed as Homo sapiens) [peptide 1]”, the “DLST positive samples (T cell proliferation induced) / samples tested” value in assay [1] (Healthy subject, N=5) is reported as 0/5; in assay [1] (Periodontitis patients, N=22), 3/22. For the same molecule, in assay [1], the “T cell proliferation induction potency in DLST” value is listed as “remarkable T cell proliferation induction potency”. The “expression of RANKL in lymphocytes” value in the assay with RANKL in lymphocytes (setting [11]) is reported as “not expressed”; in the assay on RANKL in lymphocytes (setting [12]), “increased expression of RANKL”. The “expression of RANKL mRNA” value in [2] is given as “tended to increase”. For the same molecule, the “CD positive cells (T cells) that express RANKL” value in assay [3] is “remarkably increased”. Further, the “differentiation into polynuclear giant cells” value in assay [4] is reported as “remarkable differentiation into polynuclear giant cells”. In addition, in assay [5], the “bone resorption pit formation” value is “formation of a marked bone resorption pit”. For the same molecule, the “tumentia of lower jaw lymph node (Lt)” value with rats is listed as “tumentia of lower jaw lymph node”. In the assay with rats, the alveolar bone destruction result was “alveolar bone destruction was observed”. Besides, the results for the Lymphoblast formation entry in [6] (setting [13]) and in assay [6] (setting [14]) were “further enhanced lymphoblast formation” and “Lymphoblast formation was observed”, respectively. Besides, the “expression of RANKL and CD3” value in assay [7] is “enhanced expression of RANKL and CD3”. Besides, in the assay on gingiva fibroblast (GF), the “binding level to cells, percentage higher than that of the control cell” value was “far higher binding level”. Besides, the “expression levels of MMP-2, MMP-3, MCP-1, IL-6, IL-8” value in assay [8] was “remarkably increased expression”. The “phosphorylation (activation) of p38 MAPK” value in [9] (GF) was “induced activation of p38 MAPK”. Further, the “degradation of IκB and activation of p65 NFκB” value in assay [9] was “did not induce degradation of IκB and activation of p65 NFκB”. In [10], the “activation of representative serine/threonine kinase” value was “induced activation of ERK and Akt”.

B1: Full-length human Keratin 6: full-length human Keratin 6 protein, parental protein of peptide 1 (protein, UniProt P02538 1-564, looked up)
chain: MASTSTTIRSHSSSRRGFSANSARLPGVSRSGFSSVSVSRSRGSGGLGGACGGAGFGSRSLYGLGGSKRISIGGGSCAISGGYGSRAGGSYGFGGAGSGFGFGGGAGIGFGLGGGAGLAGGFGGPGFPVCPPGGIQEVTVNQSLLTPLNLQIDPTIQRVRAEEREQIKTLNNKFASFIDKVRFLEQQNKVLETKWTLLQEQGTKTVRQNLEPLFEQYINNLRRQLDSIVGERGRLDSELRGMQDLVEDFKNKYEDEINKRTAAENEFVTLKKDVDAAYMNKVELQAKADTLTDEINFLRALYDAELSQMQTHISDTSVVLSMDNNRNLDLDSIIAEVKAQYEEIAQRSRAEAESWYQTKYEELQVTAGRHGDDLRNTKQEIAEINRMIQRLRSEIDHVKKQCANLQAAIADAEQRGEMALKDAKNKLEGLEDALQKAKQDLARLLKEYQELMNVKLALDVEIATYRKLLEGEECRLNGEGVGQVNISVVQSTVSSGYGGASGVGSGLGLGGGSSYSYGSGLGVGGGFSSSSGRAIGGGLSSVGGGSSTIKYTTTSSSSRKSYKH
modifications: full-length
Consider B1, for which the “DLST positive samples (T cell proliferation induced) / samples tested” value in [1] (Healthy subject, N=5) is listed as 2/5; in [1] (Periodontitis patients, N=22) it was 13/22. The “T cell proliferation induction potency in DLST” value in assay [1] is listed as “remarkable T cell proliferation induction potency”. Also, the “expression of RANKL in lymphocytes” value with RANKL in lymphocytes (setting [11]) is recorded as “not expressed”; in the assay on RANKL in lymphocytes (setting [12]), “increased expression of RANKL”. Also, the “expression of RANKL mRNA” value in assay [2] is on record as “tended to increase”. Further, the “CD positive cells (T cells) that express RANKL” value in [3] is “remarkably increased”. Besides, the “differentiation into polynuclear giant cells” value in assay [4] is “remarkable differentiation into polynuclear giant cells”. Moreover, the “bone resorption pit formation” value in [5] is “formation of a marked bone resorption pit”. The “tumentia of lower jaw lymph node (Lt)” value with rats was “tumentia of lower jaw lymph node”. Moreover, the alveolar bone destruction result in the assay on rats is “alveolar bone destruction was observed”. The figures for the Lymphoblast formation result in assay [6] (setting [13]) and in assay [6] (setting [14]) were “further enhanced lymphoblast formation” and “Lymphoblast formation was observed”, respectively.
